Source: ChEMBL document CHEMBL3621174, “Synthesis and evaluation of new tyrosyl-tRNA synthetase inhibitors as antibacterial agents based on a N2-(arylacetyl)glycinanilide scaffold” (Eur J Med Chem, 2015)
Converted amounts (≈) assume the structure as drawn.

How the values were obtained:
[1] = Inhibition of Staphylococcus aureus Tyrosyl-tRNA synthetase using L-[ring-3,5-3H] tyrosine as substrate after 10 min by liquid scintillation assay
Escherichia coli [2] = experiment: Antibacterial activity against Escherichia coli ATCC 8739 after 24 hr by MTT assay; assay type: functional; conditions: ATCC 8739, 24 h
Staphylococcus aureus [3] = experiment: Antibacterial activity against Staphylococcus aureus ATCC 6538 after 24 hr by MTT assay; assay type: functional; conditions: ATCC 6538, 24 h
Pseudomonas aeruginosa [4] = experiment: Antibacterial activity against Pseudomonas aeruginosa ATCC 9027 after 24 hr by MTT assay; assay type: functional; conditions: ATCC 9027, 24 h
Staphylococcus aureus [5] = experiment: Antibacterial activity against Staphylococcus aureus ATCC 25923 after 24 hr by MTT assay; assay type: functional; conditions: ATCC 25923, 24 h
Escherichia coli [6] = experiment: Antibacterial activity against Escherichia coli ATCC 35218 after 24 hr by MTT assay; assay type: functional; conditions: ATCC 35218, 24 h
Pseudomonas aeruginosa [7] = experiment: Potency index, ratio of penicillin G MIC to compound MIC for Pseudomonas aeruginosa ATCC 9027; assay type: functional
Staphylococcus aureus [8] = experiment: Potency index, ratio of penicillin G MIC to compound MIC for Staphylococcus aureus ATCC 6538; assay type: functional

IC50 [1] [µM] | MIC (Escherichia coli [2]) [µM] | MIC (Staphylococcus aureus [3]) [µM] | MIC (Pseudomonas aeruginosa [4]) [µM] | MIC (Staphylococcus aureus [5]) [µM] | MIC (Escherichia coli [6]) [µM] | MIC50 (Staphylococcus aureus [3]) [µM] | MIC50 (Pseudomonas aeruginosa [4]) [µM] | Compound | Ratio (Pseudomonas aeruginosa [7]) | Ratio (Staphylococcus aureus [8])
82 | > 160 | > 160 | > 160 | > 160 | > 160 | – | – | COc1ccc(NC(=O)CNC(=O)Cc2ccccc2)cc1 | – | –
319 | > 160 | > 160 | > 160 | > 160 | > 160 | – | – | COc1ccc(NC(=O)CNC(=O)Cc2ccc(O)cc2)cc1 | – | –
279 | > 160 | > 160 | > 160 | > 160 | > 160 | – | – | COc1ccc(NC(=O)CNC(=O)Cc2cccc(O)c2)cc1 | – | –
478 | > 160 | > 160 | > 160 | > 160 | > 160 | – | – | COc1ccc(NC(=O)CNC(=O)Cc2ccccc2O)cc1 | – | –
21.4 | 155 (≈ 49.2 µg/mL) | 64.9 (≈ 20.6 µg/mL) | > 160 | 91.1 (≈ 28.9 µg/mL) | > 160 | – | – | Cc1ccc(NC(=O)CNC(=O)Cc2cccc(Cl)c2)cc1 | – | –
70.1 | > 160 | > 160 | > 160 | > 160 | > 160 | – | – | COc1ccc(NC(=O)CNC(=O)Cc2ccc(Cl)cc2)cc1 | – | –
66.5 | > 160 | 148 (≈ 49.3 µg/mL) | > 160 | 148 (≈ 49.3 µg/mL) | > 160 | – | – | COc1ccc(NC(=O)CNC(=O)Cc2cccc(Cl)c2)cc1 | – | –
8.36 | 62.4 (≈ 23.8 µg/mL) | 20.9 (≈ 7.98 µg/mL) | 96.1 (≈ 36.7 µg/mL) | 24.9 (≈ 9.5 µg/mL) | 83.4 (≈ 31.8 µg/mL) | – | – | O=C(Cc1cccc(Cl)c1)NCC(=O)Nc1ccc(Br)cc1 | – | –
0.7 | 6.8 (≈ 2.36 µg/mL) | 1.84 (≈ 0.64 µg/mL) | 10.1 (≈ 3.51 µg/mL) | 2.36 (≈ 0.821 µg/mL) | 9.5 (≈ 3.3 µg/mL) | 0.52 (≈ 0.181 µg/mL) | 3.37 (≈ 1.17 µg/mL) | O=C(Cc1cccc(Cl)c1)NCC(=O)Nc1ccc([N+](=O)[O-])cc1 | 3.9 | 3
189 | > 160 | > 160 | > 160 | > 160 | > 160 | – | – | COc1ccc(NC(=O)CNC(=O)Cc2ccccc2Cl)cc1 | – | –
58.4 | > 160 | 97.2 (≈ 41.4 µg/mL) | > 160 | > 160 | > 160 | – | – | O=C(Cc1cccc(Br)c1)NCC(=O)Nc1ccc(Br)cc1 | – | –
112 | > 160 | > 160 | > 160 | > 160 | > 160 | – | – | COc1ccc(NC(=O)CNC(=O)Cc2ccc(F)cc2)cc1 | – | –
92.7 | > 160 | > 160 | > 160 | > 160 | > 160 | – | – | COc1ccc(NC(=O)CNC(=O)Cc2cccc(F)c2)cc1 | – | –
556 | > 160 | > 160 | > 160 | > 160 | > 160 | – | – | COc1ccc(NC(=O)CNC(=O)Cc2ccc(OC)c(OC)c2)cc1 | – | –

The next lines start with the compound.

Compound | IC50 [1] [µM] | MIC (Escherichia coli [2]) [µM] | MIC (Staphylococcus aureus [3]) [µM] | MIC (Pseudomonas aeruginosa [4]) [µM] | MIC (Staphylococcus aureus [5]) [µM] | MIC (Escherichia coli [6]) [µM] | MIC50 (Staphylococcus aureus [3]) [µM] | MIC50 (Pseudomonas aeruginosa [4]) [µM] | Ratio (Pseudomonas aeruginosa [7]) | Ratio (Staphylococcus aureus [8])
O=C(Cc1ccccc1)NCC(=O)Nc1cccc(Cl)c1 | 144 | > 160 | > 160 | > 160 | > 160 | > 160 | – | – | – | –
COc1ccc(NC(=O)CNC(=O)Cc2ccccc2)cc1OC | 162 | > 160 | > 160 | > 160 | > 160 | > 160 | – | – | – | –
O=C(Cc1ccc(O)cc1)NCC(=O)Nc1ccc([N+](=O)[O-])cc1 | 10.2 | 86.9 (≈ 28.6 µg/mL) | 28.6 (≈ 9.42 µg/mL) | 134 (≈ 44.1 µg/mL) | 34.1 (≈ 11.2 µg/mL) | 144 (≈ 47.4 µg/mL) | – | – | – | –
O=C(Cc1cccc(O)c1)NCC(=O)Nc1ccc([N+](=O)[O-])cc1 | 6.41 | 47.1 (≈ 15.5 µg/mL) | 15.2 (≈ 5.01 µg/mL) | 72 (≈ 23.7 µg/mL) | 18.4 (≈ 6.06 µg/mL) | 89.4 (≈ 29.4 µg/mL) | – | – | – | –
Cc1ccc(CC(=O)NCC(=O)Nc2ccc([N+](=O)[O-])cc2)cc1 | 44.6 | > 160 | 80.7 (≈ 26.4 µg/mL) | > 160 | 132 (≈ 43.2 µg/mL) | > 160 | – | – | – | –
O=C(Cc1ccccc1)NCC(=O)Nc1ccc(Br)cc1 | 50.6 | > 160 | 113 (≈ 39.3 µg/mL) | > 160 | > 160 | > 160 | – | – | – | –
O=C(Cc1ccccc1)NCC(=O)Nc1cccc([N+](=O)[O-])c1 | 47.8 | > 160 | 103 (≈ 32.3 µg/mL) | > 160 | 156 (≈ 48.9 µg/mL) | > 160 | – | – | – | –
O=C(Cc1ccccc1)NCC(=O)Nc1ccc([N+](=O)[O-])cc1 | 0.87 | 11.2 (≈ 3.51 µg/mL) | 2.81 (≈ 0.88 µg/mL) | 18.2 (≈ 5.7 µg/mL) | 3.67 (≈ 1.15 µg/mL) | 15.8 (≈ 4.95 µg/mL) | – | – | – | –
O=C(Cc1ccccc1)NCC(=O)Nc1cc(F)cc(F)c1 | 13.1 | 120 (≈ 36.5 µg/mL) | 40.5 (≈ 12.3 µg/mL) | 148 (≈ 45.1 µg/mL) | 47.7 (≈ 14.5 µg/mL) | > 160 | – | – | – | –
O=C(Cc1ccccc1)NCC(=O)Nc1ccc(Cl)cc1 | 16.6 | 123 (≈ 37.3 µg/mL) | 49.7 (≈ 15 µg/mL) | > 160 | 69.2 (≈ 21 µg/mL) | 159 (≈ 48.1 µg/mL) | – | – | – | –
O=C(Cc1ccccc1)NCC(=O)Nc1cc(Cl)cc(Cl)c1 | 133 | > 160 | > 160 | > 160 | > 160 | > 160 | – | – | – | –
O=C(Cc1ccccc1)NCC(=O)Nc1ccccc1 | 19.3 | 134 (≈ 35.9 µg/mL) | 52.7 (≈ 14.1 µg/mL) | > 160 | 73.5 (≈ 19.7 µg/mL) | > 160 | – | – | – | –
O=C(Cc1ccccc1)NCC(=O)Nc1ccccc1Cl | 205 | > 160 | > 160 | > 160 | > 160 | > 160 | – | – | – | –
O=C(Cc1ccc(Cl)cc1)NCC(=O)Nc1cc(Cl)cc(Cl)c1 | 254 | > 160 | > 160 | > 160 | > 160 | > 160 | – | – | – | –
O=C(Cc1ccccc1Cl)NCC(=O)Nc1ccc(Br)cc1 | 77.8 | > 160 | 69.7 (≈ 26.6 µg/mL) | > 160 | 103 (≈ 39.5 µg/mL) | > 160 | – | – | – | –
O=C(Cc1ccccc1Cl)NCC(=O)Nc1ccc([N+](=O)[O-])cc1 | 2.52 | 13.5 (≈ 4.69 µg/mL) | 6.51 (≈ 2.26 µg/mL) | 34 (≈ 11.8 µg/mL) | 8.41 (≈ 2.92 µg/mL) | 19.7 (≈ 6.85 µg/mL) | – | – | – | –
O=C(Cc1ccc(F)cc1)NCC(=O)Nc1ccc([N+](=O)[O-])cc1 | 5.25 | 42.3 (≈ 14 µg/mL) | 14.1 (≈ 4.67 µg/mL) | 65.6 (≈ 21.7 µg/mL) | 17 (≈ 5.63 µg/mL) | 75.8 (≈ 25.1 µg/mL) | – | – | – | –
O=C(Cc1cccc(F)c1)NCC(=O)Nc1ccc([N+](=O)[O-])cc1 | 1.14 | 12.3 (≈ 4.08 µg/mL) | 3.14 (≈ 1.04 µg/mL) | 18.2 (≈ 6.03 µg/mL) | 4.11 (≈ 1.36 µg/mL) | 19.6 (≈ 6.49 µg/mL) | – | – | – | –
COc1ccc(CC(=O)NCC(=O)Nc2ccc([N+](=O)[O-])cc2)cc1OC | 88.5 | > 160 | > 160 | > 160 | > 160 | > 160 | – | – | – | –
NC[C@H]1O[C@H](O[C@H]2[C@H](O)[C@@H](O[C@H]3O[C@H](CO)[C@@H](O)[C@H](N)[C@H]3O)[C@H](N)C[C@@H]2N)[C@H](O)[C@@H](O)[C@@H]1O [KANAMYCIN] | – | 1.26 (≈ 0.61 µg/mL) | – | 7.16 (≈ 3.47 µg/mL) | – | 4.35 (≈ 2.11 µg/mL) | – | – | – | –
CC1(C)S[C@@H]2[C@H](NC(=O)Cc3ccccc3)C(=O)N2[C@H]1C(=O)O [PENICILLIN G] | – | – | 7.13 (≈ 2.38 µg/mL) | – | 9.28 (≈ 3.1 µg/mL) | – | – | – | – | –
